# Measured values: patent publication US4450173A, “Compounds and method for treatment or prophylaxis of cardiac disorders” (American Hospital Supply Corporation, priority 1982, dated 1984)
# Like-named read-outs stand apart in the source and are kept apart here.
# Columns and labels:
# [1] = Disappearance in vitro in dog liver homogenate; format: in vitro ADME; conditions: 50 μg in 1 mL added to 1 mL of 33% (w/v) dog liver homogenate, 37° C.; read-out: T1/2 Dog Liver Homogenate
# Protocol: (§1) The rate of disappearance of a compound is expressed as the half-life (T1/2), which is the time period in which one-half of the initial amount of compound tested disappears. In each experiment, 1 mL of a solution containing 50 μg of the test compound was added to 1 mL of whole blood or 1 mL of a 33% (w/v) liver homogenate. […] At the designated time periods, the test mixtures were removed from the incubator and transferred to a 0° C. ice bath. Acetonitrile (2 mL) was immediately added and the mixtures were mixed to stop enzymatic hydrolysis. Zero time samples were prepared by adding 2 mL of acetonrile to denature the proteins prior to addition of the test compounds. […] The half life of each test compound was determined graphically by plotting the decrease in concentration as a function of time.
# [2] = Disappearance in vitro in dog whole blood; format: in vitro ADME; conditions: 50 μg in 1 mL added to 1 mL dog whole blood, 37° C.; read-out: T1/2 Dog Whole Blood
# Protocol: as §1
# [3] = Disappearance in vitro in human whole blood; format: in vitro ADME; conditions: 50 μg in 1 mL added to 1 mL human whole blood, 37° C.; read-out: T1/2 Human Whole Blood
# Protocol: as §1
# [4] = test system: heart rate response to isoproterenol (β-receptor mediated tachycardia); experiment: Duration of β-blockade in vivo in anesthetized dogs, 40-minute infusion; design: species or system dog; conditions: for ED50: Canis lupus familiaris, iv, 40 min, read-out: Potency (mg/kg/40 min); for 80% Recovery Time: after 40-minute infusion, normalized to 50% inhibition, dogs
# Protocol: (§2) The duration of β-blockade was determined in vivo using pentobartital-anesthetized dogs instrumented for measurement of heart rate using a Beckman® cardiotachometer triggered electronically by a phasic aortic blood pressure signal. Both vagus nerves were severed in the cervical region and the animals were mechanically ventilated. Two experimental designs were used. The first employed a 40-minute infusion of test compound and the second used a 3-hour infusion of test compound. In the 40-minute model, isoproterenol was infused into a foreleg vein at the rate of 0.5 μg/kg/min to induce a β-receptor mediated tachycardia. Various doses of test compound are then infused into a femoral vein over a period of 40 minutes. This infusion was then terminated and recovery from blockade was quantitated. […] This cumulative dose is expressed as mg/kg and is an indication of potency. The time period required for 80% recovery of heart rate response for each dose of test drug was also measured to quantitate duration of action. […] Test compounds were dissolved in 0.9% NaCl and infused at a rate of 0.05 mL/kg/min or less. In the 3-hour infusion model, bolus doses of isoproterenol (0.4 μg/kg) were used to assess the degree of β-blockade and recovery from β-blockade after termination of the infusion. The doses were spaced at 10-minute intervals and were given before, during and following the infusion of test compounds. The infusion rate was adjusted so that at the end of the 3-hour infusion period the degree of isoproterenol inhibition averaged about 50% of control.
# [5] = molecular target: guinea pig tracheal strips (Cavia porcellus, UniProt Q8K4Z4); experiment: cell-based; format: cell-based; conditions: guinea pig trachea, carbachol tension, isoproterenol, 60 minute incubation, pA2 = -log KB
# Protocol: Each tissue was suspended between a fixed glass rod and a Statham® Universal Transducer connected to a Beckman® recorder. Atria were allowed to beat spontaneously under a loading tension of approximately 0.5 gm. Intrinsic depressant for stimulant activity was determined for each compound by progressively increasing concentrations in the tissue baths at 60-minute intervals. Tissues were not washed between increments. […] Changes in rate in response to isoproterenol were measured in the absence and presence of test compounds. Spiral strips of guinea pig trachea were suspended under 5 gm resting tension and incubated with phentolamine, tropolone and cocaine. Active tension was generated by addition of carbachol (3.0×10^-7 M) and decreases in tension in response to isoproterenol were quantitated. Cumulative concentration-response curves were produced with isoproterenol both before and after 60 minute incubation of test compounds with atria and trachea. The blocking potency of test compounds was estimated by computing pA2 values (-log KB) by the method of Furchgott, The Pharmacological Differentiation of Adrenergic Receptors, Ann. […] A ratio greater than one indicates cardioselectivity.
# [6] = test system: guinea pig right atria and guinea pig tracheal strips; experiment: Cardioselectivity, KB tracheal/KB atrial; format: cell-based
# Protocol: Several of the compounds of the present invention were tested for β-blocking activity in vitro using guinea pig right atria and guinea pig tracheal strips mounted in a tissue bath containing oxygenated (95% O2 -5% CO2) Krebs physiological salt solution at 37° C. Each tissue was suspended between a fixed glass rod and a Statham® Universal Transducer connected to a Beckman® recorder. Atria were allowed to beat spontaneously under a loading tension of approximately 0.5 gm. Intrinsic depressant for stimulant activity was determined for each compound by progressively increasing concentrations in the tissue baths at 60-minute intervals. Tissues were not washed between increments. […]. Changes in rate in response to isoproterenol were measured in the absence and presence of test compounds. Spiral strips of guinea pig trachea were suspended under 5 gm resting tension and incubated with phentolamine, tropolone and cocaine. Active tension was generated by addition of carbachol (3.0×10^-7 M) and decreases in tension in response to isoproterenol were quantitated. Cumulative concentration-response curves were produced with isoproterenol both before and after 60 minute incubation of test compounds with atria and trachea. The blocking potency of test compounds was estimated by computing pA2 values (-log KB) by the method of Furchgott, The Pharmacological Differentiation of Adrenergic Receptors, Ann. N.Y. Acad. Sci.; 139: 553-570 (1967). Comparison of blockade of right atrial and tracheal responses to isoproterenol permitted assessment of cardioselectivity of test compounds; […]. A ratio greater than one indicates cardioselectivity. […]
# [7] = test system: heart rate response to isoproterenol; experiment: Duration of β-blockade in vivo in anesthetized dogs, 3-hour infusion; design: species or system dog
# Protocol: as §2
# Sequence of guinea pig tracheal strips (Q8K4Z4 whole entry): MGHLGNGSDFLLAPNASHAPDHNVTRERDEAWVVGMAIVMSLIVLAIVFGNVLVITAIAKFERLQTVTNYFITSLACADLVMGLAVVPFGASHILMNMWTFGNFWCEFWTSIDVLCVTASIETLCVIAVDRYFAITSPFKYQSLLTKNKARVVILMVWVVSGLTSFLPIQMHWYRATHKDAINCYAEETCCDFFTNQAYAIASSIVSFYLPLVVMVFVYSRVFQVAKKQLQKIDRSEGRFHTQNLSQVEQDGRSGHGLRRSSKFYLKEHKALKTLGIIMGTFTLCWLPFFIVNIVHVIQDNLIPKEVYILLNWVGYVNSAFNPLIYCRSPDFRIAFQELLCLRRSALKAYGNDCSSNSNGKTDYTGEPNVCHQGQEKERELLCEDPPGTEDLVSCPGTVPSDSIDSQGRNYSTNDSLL
half-life [1] [min],half-life [2] [min],half-life [3] [min],pA2 Trachea [5],SMILES,ED50 [4] [mg/kg],80% Recovery Time [4] [min],Cardioselectivity [6],"Cardioselectivity ([6]; ratio KB tracheal/KB atrial, greater than one indicates cardioselectivity)","ED50 ([7]; Canis lupus familiaris, iv, 3-hour infusion, bolus isoproterenol 0.4 μg/kg, read-out: Potency (mg/kg/180 min)) [mg/kg]",80% Recovery Time ([7]; after 3-hour infusion) [min],"% I (Percent inhibition of heart rate response to isoproterenol) ([7]; end of 3-hour infusion, bolus isoproterenol 0.4 μg/kg) [%]"
8.8 ± 6,152 ± 71,93 ± 30,7.4,CCOC(=O)CCCCNCC(O)COc1ccccc1C (centres unmarked) [XII],6.8 ± 3.7,11 ± 2,2.5,,,,
3 ± 1,180,155 ± 9,7.4,CCOC(=O)CCNCC(O)COc1ccccc1C (centres unmarked) [X],0.99 ± 0.27,14 ± 2,,1,6.8,> 60,69 ± 5
